# In patent US20210087217A1, “NUCLEOTIDE HEMI-SULFATE SALT FOR THE TREATMENT OF HEPATITIS C VIRUS” (Atea Pharmaceuticals, Inc., priority 2017, published 2021):
# Entries after “also recorded” stand apart in the source; their conditions may differ. Structures can show the parent of a compound that is named as a salt.
# How the values were obtained:
# HCV RNA (GT1-HCV) = assay: Plasma HCV RNA reduction in GT1-HCV infected patients (Part B); assay type: in vivo
# Protocol: Plasma HCV RNA determinations were performed through the use of a validated commercial assay. Baseline was defined as the mean of Day −1 and Day 1 (pre-dose). […] The mean maximum HCV RNA reduction 24 hours post-dose following a single 300 mg dose was 1.7 log10 IU/mL and this compares to a-2 log10 IU/mL reduction after 1 day of 400 mg of sofosbuvir monotherapy in GT1a HCV-infected subjects. The mean maximum HCV RNA reduction 24 hours post-dose following a single 100 mg dose was 0.8 log10 IU/mL. The mean maximum HCV RNA reduction was 2.2 log10 IU/mL following a single 400 mg dose.
# [1] = Ambient stability (25 ± 2° C./60 ± 5% RH) of Compound 2; assay type: physicochemical
# Protocol: (§1) Three conditions were tested: accelerated stability (40 2° C./75±5% RH) over a 6-month time period, ambient stability (25±2° C./60±5% RH) over a 9-month period, and stability under refrigerator conditions (5 3° C.) over a 9-month time period. The results for accelerated stability, ambient stability, and refrigerator conditions are shown in Table 23, Table 24, and Table 25, respectively.
# After 9 months, the percentage of water in the sample was only 0.20% and the total related substance 1 impurities was only 0.02%.
# [2] = Storage of Compound 1 forms and amorphous salts at 25° C./60% RH for 14 days (HPLC, XRPD, observation)
# Protocol: This initial characterization was followed by storage at 25° C./60% relative humidity (RH) for 14 days with analysis by […] and XRPD after 7 and 14 days. FIG. 4A is the XRPD after 14 days at 25° C./60% (RH).
# The samples were then frozen with the solvent removed by lyophilization.
# The samples were then subjected to storage at 25° C./60% relative humidity (RH) for 14 days with analysis by HPLC and XRPD after 7 (FIG. 4B) and 14 days (FIG. 5A).
# [3] = Solubility in biorelevant test medias (water, SGF, FaSSIF, FeSSIF)
# [4] = Plasma profiles of Compound 2 metabolites in monkeys; assay type: in vivo, cynomolgus monkeys; settings: monkeys, single oral 30, 100 or 300 mg/kg Compound 2
# [5] = Plasma levels of metabolites following single oral doses of Compound 2, dogs; assay type: in vivo, dog; settings: for AUC(0-t) / Cmax / Tmax: dog, plasma, po
# [6] = Heart and liver tissue levels of active triphosphate 4 hours after oral Compound 2, monkeys; assay type: in vivo, monkey; settings: 4 hours after oral dose of Compound 2
# Protocol: (§2) High levels of the active TP were measured in the liver of all species tested.
# [7] = Accelerated stability (40 ± 2° C./75 ± 5% RH) of Compound 2; assay type: physicochemical
# Protocol: as §1
# After six months, the total related substance 1 impurities was only 0.08% and there was no detection of related substance 2 and isomers.
# [8] = Plasma levels of metabolites following single oral doses of Compound 2, monkeys; assay type: in vivo, monkey; settings: for AUC(0-t) / Cmax / Tmax: monkey, plasma, po
# [9] = Heart and liver tissue levels of active triphosphate 4 hours after oral Compound 2, dogs; assay type: in vivo, dog; settings: 4 hours after oral dose of Compound 2
# Protocol: as §2
# [10] = 25° C./60% RH, over nine months
# [11] = 25 ± 2° C./60 ± 5% RH, 1st month
# [12] = 25 ± 2° C./60 ± 5% RH, 3rd month
# [13] = 25 ± 2° C./60 ± 5% RH, 6th month
# [14] = 25 ± 2° C./60 ± 5% RH, 9th month
smiles,measurement,setting,value
"CNc1nc(N)nc2c1ncn2[C@@H]1O[C@H](CO[P@@](=O)(N[C@@H](C)C(=O)OC(C)C)Oc2ccccc2)[C@@H](O)[C@@]1(C)F [Compound 2, hemi-sulfate salt of isopropyl((S)-(((2R,3R,4R,5R)-5-(2-amino-6-(methylamino)-9H-purin-9-yl)-4-fluoro-3-hydroxy-4-methyltetrahydrofuran-2-yl)methoxy)(phenoxy)phosphoryl)-L-alaninate]",Mean maximum HCV RNA reduction,"HCV RNA (GT1-HCV); 24 hours post-dose, single 100 mg dose",0.8 log10 IU/mL
same,Mean maximum HCV RNA reduction,"HCV RNA (GT1-HCV); 24 hours post-dose, single 300 mg dose",1.7 log10 IU/mL
same,Mean maximum HCV RNA reduction,HCV RNA (GT1-HCV); single 400 mg dose,2.2 log10 IU/mL
same,Percentage of water,"[1]; 25° C./60% RH, after 9 months",0.20%
same,Total related substance 1 impurities,"[1]; 25° C./60% RH, after 9 months",0.02%
same,Related substance 2 and any isomers,"[1]; 25° C./60% RH, nine months",not detected
same,Appearance,[1]; [10],white solid
same,IR,[1]; [10],corresponded with the reference sample
same,Appearance,"[1]; 25 ± 2° C./60 ± 5% RH, 0 month",White
same,Assay,"[1]; 25 ± 2° C./60 ± 5% RH, 0 month",98.8%
same,IR,"[1]; 25 ± 2° C./60 ± 5% RH, 0 month",correspond
same,Related Substance 1 Any other single impurity,"[1]; 25 ± 2° C./60 ± 5% RH, 0 month",0.01%
same,Related Substance 1 Total Impurities,"[1]; 25 ± 2° C./60 ± 5% RH, 0 month",0.01%
same,Water,"[1]; 25 ± 2° C./60 ± 5% RH, 0 month",0.45%
same,Appearance,[1]; [11],White
same,Assay,[1]; [11],101.1%
same,Related Substance 1 Any other single impurity,[1]; [11],0.01%
same,Related Substance 1 Total Impurities,[1]; [11],0.02%
same,Water,[1]; [11],0.19%
same,Appearance,[1]; [12],White
same,Assay,[1]; [12],99.6%
same,IR,[1]; [12],correspond
same,Related Substance 1 Any other single impurity,[1]; [12],0.03%
same,Related Substance 1 Impurity B,[1]; [12],0.03%
same,Related Substance 1 Impurity F,[1]; [12],0.02%
same,Related Substance 1 Total Impurities,[1]; [12],0.11%
same,Water,[1]; [12],0.29%
same,Appearance,[1]; [13],White solid
same,Assay,[1]; [13],99.7%
same,IR,[1]; [13],correspond
same,Related Substance 1 Any other single impurity,[1]; [13],0.02%
same,Related Substance 1 Impurity F,[1]; [13],0.01%
same,Related Substance 1 Total Impurities,[1]; [13],0.05%
same,Water,[1]; [13],0.46%
same,Appearance,[1]; [14],Off-white
same,Assay,[1]; [14],100.9%
same,IR,[1]; [14],correspond
same,Related Substance 1 Any other single impurity,[1]; [14],0.02%
same,Related Substance 1 Total Impurities,[1]; [14],0.02%
same,Water,[1]; [14],0.20%
same,Stability,"[1]; ambient conditions (25° C./60% RH), 9 months",very stable; also recorded: stable
same,Hygroscopicity,[2],not hydroscopic; also recorded: non-hygroscopic
same,Physical/chemical stability and appearance on storage,"[2]; 25° C./60% RH, 14 days",stable white solid
same,Appearance in solubility test,[3]; FaSSIF,Turbid
same,Solubility descriptive term,[3]; FaSSIF,Slightly
same,Appearance in solubility test,[3]; FeSSIF,Turbid
same,Solubility descriptive term,[3]; FeSSIF,Slightly
same,Appearance in solubility test,[3]; SGF,Turbid
same,Solubility descriptive term,[3]; SGF,Soluble
same,Appearance in solubility test,[3]; Water,Turbid
same,Solubility descriptive term,[3]; Water,Soluble
same,Times more soluble in water compared to Compound 1,[3]; Water,up to 43 times
same,Times more soluble than Compound 1 under SGF conditions,[3]; simulated gastric fluid (SGF),over 6 times
same,Dose proportionality of metabolite 1-7 exposures,[4],somewhat less than dose-proportional
same,Dose proportionality of plasma exposures (AUC) of Compound 1,[4],roughly dose-proportional
same,AUC(0-t),[5]; 30 mg/kg,1300 ng·h/mL
same,AUC(0-t),[5]; 100 mg/kg,10200 ng·h/mL
same,Cmax,[5]; 100 mg/kg,8120 ng/mL
same,Tmax,[5]; 100 mg/kg,0.5 to 1 h
same,AUC(0-t),[5]; 300 mg/kg,44300 ng·h/mL
same,Cmax,[5]; 300 mg/kg,21300 ng/mL
same,Tmax,[5]; 300 mg/kg,204 h
same,Vomiting (animals affected),"[5]; dogs, high dose group",5/5
same,Dose proportionality of Compound 1 exposures,"[5]; dogs, single oral doses of Compound 2",supra-proportional
same,Active TP (metabolite 1-6) level in heart,[6],unquantifiable levels
same,Active TP (metabolite 1-6) level in liver,[6],High levels
same,Appearance,"[7]; 40° C./75% RH, 0 month",White
same,Assay,"[7]; 40° C./75% RH, 0 month",98.8%
same,IR,"[7]; 40° C./75% RH, 0 month",correspond
same,Related Substance 1: Any other single impurity,"[7]; 40° C./75% RH, 0 month",0.01%
same,Related Substance 1: Total Impurities,"[7]; 40° C./75% RH, 0 month",0.01%
same,Water,"[7]; 40° C./75% RH, 0 month",0.45%
same,Appearance,"[7]; 40° C./75% RH, 1st month",White
same,Assay,"[7]; 40° C./75% RH, 1st month",101.5%
same,Related Substance 1: Any other single impurity,"[7]; 40° C./75% RH, 1st month",0.02%
same,Related Substance 1: Total Impurities,"[7]; 40° C./75% RH, 1st month",0.02%
same,Water,"[7]; 40° C./75% RH, 1st month",0.21%
same,Appearance,"[7]; 40° C./75% RH, 3rd month",White
same,Assay,"[7]; 40° C./75% RH, 3rd month",99.6%
same,IR,"[7]; 40° C./75% RH, 3rd month",correspond
same,Related Substance 1: Any other single impurity,"[7]; 40° C./75% RH, 3rd month",0.01%
same,Related Substance 1: Total Impurities,"[7]; 40° C./75% RH, 3rd month",0.02%
same,Water,"[7]; 40° C./75% RH, 3rd month",0.36%
same,Appearance,"[7]; 40° C./75% RH, 6th month",White
same,Assay,"[7]; 40° C./75% RH, 6th month",99.5%
same,IR,"[7]; 40° C./75% RH, 6th month",correspond
same,Related Substance 1: Any other single impurity,"[7]; 40° C./75% RH, 6th month",0.05%
same,Related Substance 1: Impurity F,"[7]; 40° C./75% RH, 6th month",0.01%
same,Related Substance 1: Total Impurities,"[7]; 40° C./75% RH, 6th month",0.08%
same,Water,"[7]; 40° C./75% RH, 6th month",0.41%
same,Stability,"[7]; accelerated stability conditions (40° C./75% RH), 6 months",remains a white solid
same,AUC(0-t),[8]; 30 mg/kg,176 ng·h/mL
same,Cmax,[8]; 30 mg/kg,63.5 ng/mL
same,Tmax,[8]; 30 mg/kg,0.5 to 2 h
same,AUC(0-t),[8]; 100 mg/kg,1100 ng·h/mL
same,Cmax,[8]; 100 mg/kg,783 ng/mL
same,Tmax,[8]; 100 mg/kg,1 to 2 h
same,AUC(0-t),[8]; 300 mg/kg,1600 ng·h/mL
same,Cmax,[8]; 300 mg/kg,501 ng/mL
same,Tmax,[8]; 300 mg/kg,204 h
same,Vomiting (animals affected),"[8]; monkeys, high dose group",1/5
same,Dose proportionality of Compound 1 exposures,"[8]; monkeys, single oral doses of Compound 2",roughly dose-proportional
same,Active TP (metabolite 1-6) level in heart,[9],Relatively low levels
same,Active TP (metabolite 1-6) level in liver,[9],High levels
